Measured values from patent US6258790A, “Antisense modulation of integrin α4 expression” (Isis Pharmaceuticals, Inc., priority 1999, dated 2001).

System: human integrin α4
Test: Inhibition of human integrin α4 protein levels by antisense oligonucleotides (LIPOFECTIN, flow cytometry with CD49d-FITC) in A375 melanoma cells
Assay type: cell-based
Design: % Inhib.: tested at 200 nM
Conditions: for % Control (integrin α4 protein): Table 1, 200 nM oligonucleotide, 6 ug/ml LIPOFECTIN; for % CONTROL 48 hr / % INHIB 48 hr / % CONTROL 72 hr / % INHIB 72 HR: Table 2, A375; for inhibition (Example 11): Example 11 assay
Text: Integrin α4 protein levels can be quantitated in a variety of ways well known in the art, such as immunoprecipitation, Western blot analysis (immunoblotting), ELISA or fluorescence-activated cell sorting (FACS). Antibodies directed to integrin α4 can be identified and obtained from a variety of sources, such as the MSRS catalog of antibodies (Aerie Corporation, Birmingham, Mich.), or can be prepared via conventional antibody generation methods.
Target sites are indicated by nucleotide numbers, as given in the sequence source reference (GenBank accession no. L12002), to which the oligonucleotide binds. All compounds in Table 1 are 18 nucleotides in length, with a phosphorothioate backbone and a centered 10-base deoxynucleotide gap flanked by 2'-methoxyethoxy (2'MOE) wings. Human A375 melanoma cells (American Type Culture Collection, Manassas, Va.) were plated at 2000 cells/cm^2 two days before oligonucleotide treatment. Cells were treated with oligonucleotides at a dose of 200 nM oligonucleotide and 6 ug/ml LIPOFECTIN for four hours. Cells were incubated overnight and harvested with 2 mM EDTA in PBS. Cells were washed in 2% bovine serum albumin, 0.2% sodium azide in D-PBS at 4° C. Cells were centrifuged at 200×g, and the supernatant was decanted. […] Antibodies were incubated with the cells for 30 minutes at 4° C. in the dark, under gentle agitation. Cells were washed again as above and then resuspended in 0.3 ml of FacsFlow buffer with 0.5% formaldehyde. Cells were analyzed on Becton Dickinson FACScan. Results are expressed as percentage of control expression based on mean fluorescence intensity.
Cells were harvested with trypsin at 48 and 72 hours after oligonucleotide treatment and stained with 2 ug/ml CD49d-FITC as in the previous example.
Where backbones are mixed, linkages are shown as "s" for phosphorothioate (P=S or PS) and "o" for phosphodiester (P=O or PO). Where target region is indicated as `M62841,` oligonucleotides are targeted to the promotor region whose sequence is described in GenBank Accession No. M62841. Remaining oligonucleotides are targeted to the sequence described in Genbank Accession No. L12002 and their target sites on the L12002 sequence are indicated.
Target sites refer to nucleotide numbers on the target sequence (GenBank Accession No. L12002) to which the oligonucleotides hybridize.
Oligonucleotides were synthesized as "gapmers" consisting of a 9-nucleotide region of deoxynucleotides flanked by three 2'-O-methoxyethyl(2'-MOE) nucleotides on the 5' end and eight 2'-MOE nucleotides on the 3' end. 2'-MOE nucleotides are shown in bold in the table. Oligonucleotides were synthesized with phosphorothioate backbones throughout, and all cytosines are 5-methylcytosines.

[1] = Table 24, A375 cells, lipofectin, as Example 8

Row | Substance | % Control (integrin α4 protein) (A375 cells) [%] | % Control (Table 4, 10 nM) [%] | % Control (Table 4, 30 nM) [%] | % Control (Table 4, 100 nM) [%] | % Control (Table 4, 300 nM) [%] | inhibition (Example 11) (dose not stated) [%] | % Control (Table 6, 10 nM) [%] | % Control (Table 6, 30 nM) [%] | % Inhib. (Table 6, 30 nM) [%] | % Control (Table 6, 100 nM) [%] | % Inhib. (Table 6, 100 nM) [%] | % Control (Table 6, 300 nM) [%] | % Inhib. (Table 6, 300 nM (highest dose)) [%] | also measured
1 | 24475 (GCCCTTATATGAGAAACA; phosphorothioate, 2'-MOE/deoxy, further chemistry not given here) [compound 24475] | 48 | 97 | 73 | 84 | 55 | – | – | – | – | – | – | – | – | inhibition (Example 10) (Example 10 assay, dose not stated): ≥ 40%; % CONTROL 48 hr (50 nM): 60%; % INHIB 48 hr (50 nM): 40%; % CONTROL 72 hr (50 nM): 69%; % INHIB 72 HR (50 nM): 31%; % CONTROL 48 hr (100 nM): 31%; % INHIB 48 hr (100 nM): 69%; % CONTROL 72 hr (100 nM): 44%; % INHIB 72 HR (100 nM): 56%; % CONTROL 48 hr (200 nM): 30%; % INHIB 48 hr (200 nM): 70%; % CONTROL 48 hr (400 nM): 39%; % INHIB 48 hr (400 nM): 61%; % CONTROL 72 hr (400 nM): 52%; % INHIB 72 HR (400 nM): 48%; % Inhib. (Table 4, 30 nM): 27%; % Inhib. (Table 4, 100 nM): 16%; % Inhib. (Table 4, 300 nM (highest dose)): 45%
2 | 24476 (CAATTTGAAAGAAGTCCT; chemistry not given here) [compound 24476] | 99 | – | – | – | – | – | – | – | – | – | – | – | – | –
3 | 24477 (TCCATTCTCTCAATTTGA; chemistry not given here) [compound 24477] | 43 | – | – | – | – | ≥ 40 | 83 | 80 | 20 | 63 | 37 | 33 | 67 | % CONTROL 48 hr (50 nM): 56%; % INHIB 48 hr (50 nM): 44%; % CONTROL 72 hr (50 nM): 72%; % INHIB 72 HR (50 nM): 28%; % CONTROL 48 hr (100 nM): 47%; % INHIB 48 hr (100 nM): 53%; % CONTROL 72 hr (100 nM): 67%; % INHIB 72 HR (100 nM): 33%; % CONTROL 48 hr (200 nM): 34%; % INHIB 48 hr (200 nM): 66%; % CONTROL 72 hr (200 nM): 44%; % INHIB 72 HR (200 nM): 56%; % CONTROL 48 hr (400 nM): 35%; % INHIB 48 hr (400 nM): 65%; % CONTROL 72 hr (400 nM): 53%; % INHIB 72 HR (400 nM): 47%; % Inhib. (Table 6, 10 nM): 17%
4 | 24478 (GGCGGGCTGTTTTCCATT; chemistry not given here) [compound 24478] | 115 | – | – | – | – | – | – | – | – | – | – | – | – | –
5 | 24739 (TTTAGTGACAAAGACGTTAT; phosphorothioate deoxy, further chemistry not given here) [compound 24739] | – | 69 | 67 | 121 | 107 | – | – | – | – | – | – | – | – | % Inhib. (Table 4, 10 nM): 31%; % Inhib. (Table 4, 30 nM): 33%
6 | 24740 (GAAGGCCCCTGGGGAACATT; phosphorothioate deoxy, further chemistry not given here) [compound 24740] | – | 122 | 119 | 106 | 88 | – | – | – | – | – | – | – | – | % Inhib. (Table 4, 300 nM (highest dose)): 12%
7 | 24741 (AGACGTTATGGCTATTCTCT; phosphorothioate deoxy, further chemistry not given here) [compound 24741] | – | 109 | 113 | 125 | 127 | – | – | – | – | – | – | – | – | –
8 | 24742 (TTTAGTGACAAAGACGTTAT; phosphorothioate, 2'-MOE, 5-methyl-C, further chemistry not given here) [compound 24742] | – | 112 | 107 | 123 | 128 | – | – | – | – | – | – | – | – | –
9 | 24743 (GAAGGCCCCTGGGGAACATT; phosphorothioate, 2'-MOE, 5-methyl-C, further chemistry not given here) [compound 24743] | – | 96 | 121 | 117 | 105 | – | – | – | – | – | – | – | – | –
10 | 24744 (AGACGTTATGGCTATTCTCT; phosphorothioate, 2'-MOE, 5-methyl-C, further chemistry not given here) [compound 24744] | – | 121 | 110 | 118 | 118 | – | – | – | – | – | – | – | – | –
11 | 26640 (CCACTGATTGTCTCTCTCTT; phosphorothioate, 2'-MOE/deoxy, further chemistry not given here) [compound 26640] | – | – | – | – | – | ≥ 40 | 91 | 83 | 17 | 62 | 38 | 35 | 65 | –
12 | 26641 (GAGCTTATTTTCATTCTTTA; phosphorothioate, 2'-MOE/deoxy, further chemistry not given here) [compound 26641] | – | – | – | – | – | ≥ 40 | 88 | 85 | 15 | 67 | 33 | 31 | 69 | % Inhib. (Table 6, 10 nM): 12%
13 | 26642 (TCAGGGTGGCTTAAAGAAGC; phosphorothioate, 2'-MOE/deoxy, further chemistry not given here) [compound 26642] | – | – | – | – | – | ≥ 40 | 84 | 77 | 23 | 56 | 44 | 23 | 77 | % Inhib. (Table 6, 10 nM): 16%; % Control [1]: 67%; % Inhib. [1]: 33%
